Experimental data taken from PubChem BioAssay (NCI).
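Where inhibition never reached the appropriate level, the endpoint shown equals the highest concentration tested. Otherwise, values were interpolated linearly from a five-concentration, 48-hour dose response in 96-well plates. TGI denotes the concentration required for complete inhibition of growth.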

Columns and labels:
Test in all cases: inhibition of tumour cell growth, NCI panel, 48 h
NCI-H23 lung = test system: NCI-H23 lung
NCI-H522 lung = test system: NCI-H522 lung
PC-3 prostate = test system: PC-3 prostate
SF-539 CNS = test system: SF-539 CNS
K-562 leukemia = test system: K-562 leukemia
RXF 393 renal = test system: RXF 393 renal
OVCAR-4 ovarian = test system: OVCAR-4 ovarian
MOLT-4 leukemia = test system: MOLT-4 leukemia
HCC-2998 colon = test system: HCC-2998 colon
OVCAR-3 ovarian = test system: OVCAR-3 ovarian
MDA-N = test system: MDA-N
HCT-116 colon = test system: HCT-116 colon
U251 CNS = test system: U251 CNS
HS 578T breast = test system: HS 578T breast
CCRF-CEM leukemia = test system: CCRF-CEM leukemia
NCI-H226 lung = test system: NCI-H226 lung
MALME-3M melanoma = test system: MALME-3M melanoma
UO-31 renal = test system: UO-31 renal
IGROV1 ovarian = test system: IGROV1 ovarian
HOP-18 NSCLC = test system: HOP-18 NSCLC

| SMILES | TGI (NCI-H23 lung) [µM] | TGI (NCI-H522 lung) [µM] | TGI (PC-3 prostate) [µM] | TGI (SF-539 CNS) [µM] | TGI (K-562 leukemia) [µM] | TGI (RXF 393 renal) [µM] | TGI (OVCAR-4 ovarian) [µM] | TGI (MOLT-4 leukemia) [µM] | TGI (HCC-2998 colon) [µM] | TGI (OVCAR-3 ovarian) [µM] | TGI (MDA-N) [µM] | TGI (HCT-116 colon) [µM] | TGI (U251 CNS) [µM] | TGI (HS 578T breast) [µM] | TGI (CCRF-CEM leukemia) [µM] | TGI (NCI-H226 lung) [µM] | TGI (MALME-3M melanoma) [µM] | TGI (UO-31 renal) [µM] | TGI (IGROV1 ovarian) [µM] | TGI (HOP-18 NSCLC) [µM] |
| --- | --- | --- | --- | --- | --- | --- | --- | --- | --- | --- | --- | --- | --- | --- | --- | --- | --- | --- | --- | --- |
| COC(=O)c1ccccc1C1CN=NC12Cc1cc(C)c(C)cc1C2=O (centres undefined) | > 100 | 67.3 | > 100 | > 100 | > 100 | > 100 | > 100 | 89.8 | > 100 | > 100 | > 100 | > 100 | > 100 | > 100 | > 100 | > 100 | > 100 | > 100 | > 100 | – |
| CCC1(N=[N+]=[N-])C(=O)c2ccccc2N(c2ccccc2)C1=O (centres undefined) | > 100 | > 100 | – | > 100 | > 100 | – | > 100 | > 100 | > 100 | > 100 | – | > 100 | > 100 | – | > 100 | – | > 100 | > 100 | > 100 | > 100 |
| CCc1cccc(CC)c1NC(=O)C1=C(C)NC(C)=C(C(=O)Nc2c(CC)cccc2CC)C1c1ccc2c(c1)OCO2 | 32.8 | 27.2 | – | 37.8 | 38.2 | – | 42.9 | > 100 | 36.7 | 27.2 | – | 35.7 | 27.4 | – | 20.3 | 28.6 | 29.7 | 30.8 | 44.2 | 61.2 |
| CCCCNC(=O)CCN(C(=O)O)S(=O)(=O)c1ccc(NC(=O)c2ccccc2)cc1 | > 100 | > 100 | – | > 100 | > 100 | – | > 100 | > 100 | > 100 | > 100 | – | > 100 | > 100 | – | > 100 | > 100 | > 100 | > 100 | > 100 | > 100 |
| COC(=O)C1=C(O)CCCC(CCC(C)=O)=C1 | > 100 | 31.1 | > 100 | 61.1 | > 100 | > 100 | > 100 | > 100 | > 100 | > 100 | > 100 | 36.1 | > 100 | > 100 | 25.2 | > 100 | > 100 | > 100 | > 100 | – |
| CCN(CC)Cc1cc(Nc2c3ccccc3nc3c4ccccc4n(C)c23)ccc1O | 30.3 | 6.39 | – | 10.9 | 7.65 | 25.5 | 27.4 | 8.47 | – | – | – | 19.5 | 22.7 | – | 6.44 | 57.4 | 27 | 22.8 | 31.2 | 27.1 |
| COc1cc2c(c(OC)c1OC)C(=O)[C@H](Br)[C@H]2NC(=O)NCCCl | > 100 | > 100 | > 100 | > 100 | > 100 | > 100 | > 100 | > 100 | > 100 | > 100 | > 100 | > 100 | > 100 | > 100 | > 100 | > 100 | > 100 | > 100 | > 100 | – |
